Experimental data from patent publication US8809550B2, “Androgen receptor antagonists and uses thereof” (priority 2009, dated 2014).

Key:
[1] = tested on: Prostate-specific Antigen (PSA) production in LNCaP cells; experiment: PSA assay: inhibition of PSA production in LNCaP cells (ELISA); type: cell-based; conditions: Homo sapiens; for IC50: 72 h, R1881 1 ng/ml, three days, seven point assay
Protocol: (§1) PSA Assay (Inhibition Test of the Compound of the Present Invention on Prostate-Specific Antigen (PSA) Production in Various Prostate Cancer Cells)
(§2) Androgen dependent LNCaP and 22RV1 cells were purchased from the American Type Culture Collection (ATCC, Manassas, Va.). These cells were grown in RPMI 1640 medium supplemented with 10% fetal bovine serum (FBS), 100 U/mL penicillin, 100 μg/mL streptomycin, and 0.25 μg/mL amphotericin B. The cells were maintained at 37° C. and 5% CO2. LNCaP cells between passage 20 and 35, and 22RV1 cells between passage 30 and 50 were used for experiments. LNCaP is a hormone sensitive cell line, while 22RV1 is a hormone refractory prostate cancer cell line, which derived from a primary prostate tumor. This cell line was isolated from a xenograft (CWR22R-2152) that was serially propagated in mice after castration-induced regression and relapse of the parental, androgen-dependent CWR xenograft. For the PSA assay, human prostate cancer cells LNCaP or 22RV1 were seeded in a 96-well plate at a concentration of 5000 cells/100 μl/well. On the following day, Methyltrienolone (R1881, AR agonist) (final concentration 1 ng/ml), test compounds or bicalutamide (Casodex®, AstraZeneca) (final concentration 0.005 to 20 μM) were added. Three days after the addition, the concentration of PSA in the supernatant of the culture solution was measured by ELISA. ELISAs for human PSA in culture medium were performed using the ultra-sensitive assay procedure and reagents in the Active™ PSA assay kit (Diagnostic Systems Laboratories Inc., Webster, Tex.). Culture medium and standards (200 μl/well) were incubated in antibody-coated plates for 2 h at room temperature on a Titer plate shaker at 500-600 rpm. Wells were then washed five times. The HRP conjugate was diluted 1:20 with assay buffer, and 100 μl was added to all wells. The plates were incubated for 30 min at room temperature on the shaker and washed as before, and 100 μl TMB (3,3′,5,5′-tetramethylbenzidine, 0.4 g/l) was added. The plates were incubated for 10 min on the shaker, and the reaction was terminated with 100 μl stop solution. The plates were read using a plate reader at 450 nm with a 650 nm reference filter. PSA levels were normalized for differences in growth of LNCaP or 22RV1 cells following various treatments as determined by the MTS assay. IC50 of PSA was calculated based on a seven point assay (concentrations of tested compound) and expressed as micromolar (uM). Results on 22RV1 cells are shown as percent inhibition at 2 micromolar (uM). ND means not determined

22RV1 cells = experiment: Cell viability assay, 22RV1 cells; type: cell-based, human; conditions: 22RV1 cells, 2.5 uM, R1881 1 ng/ml, 48-hour
Protocol: (§3) LNCaP and 22RV1 cells were maintained in RPMI 1640 medium supplemented with 10% fetal bovine serum (FBS), 100 U/mL penicillin, 100 μg/mL streptomycin, and 0.25 μg/mL amphotericin B, splitting cells when they reached 80-90% confluence. In order to test compounds, 10,000 cells/well were plated in 96 cell culture plates using 100 ul/well plating medium, cultured overnight at 37° C. in a cell culture incubator. After carefully remove plating medium, 80 ul/well of pre-warmed assay medium was added, followed by adding 10 ul/well test compounds or bicalutamide (final concentration from 20 uM to 0.1 uM), incubated at 37° C. for 30 minutes, then adding 10 ul/well freshly prepared Methyltrienolone (R1881, AR agonist) (final concentration 1 ng/ml) to each well, incubate at 37° C. for 48-hour. At the end of incubation, 20 μl MTT (2.5 mg/ml in PBS) was added to each well, and the cells were further incubated for 2 h at 37 C to allow a complete reaction between the dye and the enzyme mitochondrial dehydrogenase in the viable cells. After removal of the residual dye and medium, 100 μl dimethylsulfoxide was added to each well, and the absorbance at 570 nm was measured with an microplate reader. The fold induction over background by 1 nM R1881 in the absence of test compounds is standardized as 100% and experimental result is expressed as percentage of inhibition by testing compounds at 2.5 micromolar (uM).

LNCaP cells = experiment: Cell viability assay, LNCaP cells; type: cell-based; conditions: Homo sapiens; LNCaP cells, 2.5 uM, R1881 1 ng/ml, 48-hour; read-out: Inhibition of cell viability, LNCaP % inhibition at 2.5 uM
Protocol: as §3

[2] = tested on: Prostate-specific Antigen (PSA) production in 22RV1 cells; experiment: PSA assay: inhibition of PSA production in 22RV1 cells (ELISA); type: cell-based; conditions: Homo sapiens, 72 h, R1881 1 ng/ml, three days
Protocol: as §1
as §2, with “Results on 22RV1 cells are shown as percent inhibition at 2 micromolar (uM).” left out

Structure (SMILES) | IC50 [1] | inhibition at 2 µM [2] | also measured
CC(O)(CS(=O)(=O)c1ccc(F)cc1)C(=O)Nc1ccc(C#N)c(C(F)(F)F)c1 (stereo not drawn) [Bicalutamide, bicalutamide, reference compound] | 3100 nM | 18% | inhibition at 1 µM ([1]; 1 micromolar (summary text b205)): 34%; Inhibition of cell viability, 22RV1 % inhibition at 2.5 uM (22RV1 cells): <10%; cytotoxicity at 2.5 µM (22RV1 cells; Homo sapiens, read-out: Inhibition of cell viability, 22RV1 % inhibition at 2.5 uM): < 10%; cytotoxicity at 2.5 µM (LNCaP cells): 21%
CNC(=O)c1ccc(N2C(=S)N(c3cc(F)c(C#N)cc3F)C(=O)C23CCC3)cc1F [Example 3, 4-[7-(4-Cyano-2,5-difluoro-phenyl)-8-oxo-6-thioxo-5,7-diaza-spiro[3.4]oct-5-yl]-2-fluoro-N-methyl-benzamide] | 2100 nM | 21% | 
CNC(=O)c1ccc(N2C(=S)N(c3ccc(C#N)cc3OC(F)(F)F)C(=O)C23CCC3)cc1F [Example 4, 4-[7-(4-Cyano-2-trifluoromethoxy-phenyl)-8-oxo-6-thioxo-5,7-diaza-spiro[3.4]oct-5-yl]-2-fluoro-N-methyl-benzamide] | 1400 nM |  | 
CNC(=O)c1ccc(N2C(=S)N(c3ccc(C#N)cc3F)C(=O)C23CCC3)cc1F [Example 5, 4-[7-(4-Cyano-2-fluoro-phenyl)-8-oxo-6-thioxo-5,7-diaza-spiro[3.4]oct-5-yl]-2-fluoro-N-methyl-benzamide] | 1400 nM |  | 
CNC(=O)c1ccc(N2C(=S)N(c3ccc(C#N)cc3C)C(=O)C23CCC3)cc1F [Example 6, 4-[7-(4-Cyano-2-methyl-phenyl)-8-oxo-6-thioxo-5,7-diaza-spiro[3.4]oct-5-yl]-2-fluoro-N-methyl-benzamide] | 1500 nM |  | 
CNC(=O)c1ccc(N2C(=S)N(c3ccc(C#N)cc3C(F)(F)F)C(=O)C23CCC3)cc1F [Example 7, 4-[7-(4-Cyano-2-trifluoromethyl-phenyl)-8-oxo-6-thioxo-5,7-diaza-spiro[3.4]oct-5-yl]-2-fluoro-N-methyl-benzamide] | 1500 nM |  | 
CNC(=O)c1ccc(N2C(=S)N(c3ccc(C#N)c(C#N)c3)C(=O)C23CCC3)cc1F [Example 9, 4-[7-(3,4-Dicyano-phenyl)-8-oxo-6-thioxo-5,7-diaza-spiro[3.4]oct-5-yl]-2-fluoro-N-methyl-benzamide] | 980 nM | 64% | 
CC1(C)C(=O)N(c2ccc(C#N)c(C(F)(F)F)c2F)C(=S)N1c1ccc(S(C)(=O)=O)cc1 [Example 13, 3-Fluoro-4-[3-(4-methanesulfonyl-phenyl)-4,4-dimethyl-5-oxo-2-thioxo-imidazolidin-1-yl]-2-trifluoromethyl-benzonitrile] | 520 nM | 61% | 
CC1(C)C(=O)N(c2ccc(C#N)c(C(F)(F)F)c2F)C(=S)N1c1ccc(C#N)cc1 [Example 14, 4-(4,4-Dimethyl-5-oxo-2-thioxo-3-p-cyanophenyl-imidazolidin-1-yl)-3-fluoro-2-trifluoromethyl-benzonitrile] | 490 nM | 71% | 
Cc1ccc(N2C(=S)N(c3ccc(C#N)c(C(F)(F)F)c3F)C(=O)C2(C)C)cn1 [Example 15, 4-[4,4-Dimethyl-3-(6-methyl-pyridin-3-yl)-5-oxo-2-thioxo-imidazolidin-1-yl]-3-fluoro-2-trifluoromethyl-benzonitrile] | 350 nM | 69% | 
CC1(C)C(=O)N(c2ccc(C#N)c(Cl)c2F)C(=S)N1c1ccc(S(C)(=O)=O)cc1 [Example 16, 2-Chloro-3-fluoro-4-[3-(4-methanesulfonyl-phenyl)-4,4-dimethyl-5-oxo-2-thioxo-imidazolidin-1-yl]-benzonitrile] | 630 nM | 70% | 
Cc1ccc(N2C(=S)N(c3ccc(C#N)c(Cl)c3F)C(=O)C2(C)C)cn1 [Example 17, 2-Chloro-4-[4,4-dimethyl-3-(6-methyl-pyridin-3-yl)-5-oxo-2-thioxo-imidazolidin-1-yl]-3-fluoro-benzonitrile] | 310 nM | 76% | 
COc1c(C#N)ccc(N2C(=O)C(C)(C)N(c3ccc(S(C)(=O)=O)cc3)C2=S)c1F [Example 21, 3-Fluoro-4-[3-(4-methanesulfonyl-phenyl)-4,4-dimethyl-5-oxo-2-thioxo-imidazolidin-1-yl]-2-methoxy-benzonitrile] | 1800 nM |  | 
CNC(=O)c1ccc(N2C(=S)N(c3ccc(C#N)c(OC)c3F)C(=O)C2(C)C)cc1F [Example 22, 4-[3-(4-Cyano-2-fluoro-3-methoxy-phenyl)-5,5-dimethyl-4-oxo-2-thioxo-imidazolidin-1-yl]-2-fluoro-N-methyl-benzamide] | 520 nM | 57% | 
Cc1ccc(N2C(=S)N(c3ccc(C#N)c(C#N)c3)C(=O)C2(C)C)cc1F [Example 25, 4-[3-(3-Fluoro-4-methyl-phenyl)-4,4-dimethyl-5-oxo-2-thioxo-imidazolidin-1-yl]-phthalonitrile] | 290 nM | 82% | 
Cc1ccc(N2C(=S)N(c3ccc(C#N)c(Cl)c3F)C(=O)C2(C)C)cc1 [Example 29, 2-Chloro-4-(4,4-dimethyl-5-oxo-2-thioxo-3-p-tolyl-imidazolidin-1-yl)-3-fluoro-benzonitrile] | 280 nM | 78% | 
Cc1ccc(N2C(=S)N(c3ccc(C#N)c(Cl)c3F)C(=O)C2(C)C)cc1F [Example 31, 2-Chloro-3-fluoro-4-[3-(3-fluoro-4-methyl-phenyl)-4,4-dimethyl-5-oxo-2-thioxo-imidazolidin-1-yl]-benzonitrile] | 420 nM | 67% | 
